Assays:
Type in all cases: cell-based
B. subtilis BGSC 1A1 [1] = assay: Broth microdilution MIC; conditions: B. subtilis BGSC 1A1; 20 h at 37° C.
Experimental: (§1) Broth microdilution assays^77, 78 were performed with B. subtilis, and S. aureus to determine the lowest compound concentration inhibiting visible growth, i.e., minimum inhibitory concentration (MIC) of the 4 original compounds. […] The insolubility of the fourth compound may account for its lack of antibacterial activity. […] The MICs of each compound are moderate.
(§2) Strains were grown on trypticase soy agar (TSA) with 5% sheep blood at 37° C. for 24 hours. Five isolated colonies were used to inoculate 5 mL cation-adjusted Mueller-Hinton broth (CAMHB) contained in a 50 mL centrifuge tube. The resulting culture was incubated shaking at 200 rpm for 3 hours at 37° C. and then diluted in CAMHB until its turbidity matched that of a 0.5 McFarland standard (OD625 0.08-0.10). After the culture had been standardized against a 0.5 McFarland standard, it was diluted 1:10 in CAMHB and then 5 μL of this dilution was added to the appropriate wells of a 96-well, flat-bottomed tissue culture plate in which each row contained a twofold dilution series of a particular compound ranging in concentration from 0.25 μg/mL to 512 μg/mL. Each plate also included a sterility control well containing CAMHB to which standardized inoculum was not added and a growth control well containing CAMHB to which 5 μL standardized inoculum was added. […] With the exception of the sterility control well, all wells were inoculated within 15 minutes of inoculum preparation to ensure that the starting concentration of bacteria in each well was approximately 5×10^5 CFU/m L. A Tecan Sunrise microplate absorbance reader was used to measure the OD620 of each well before and after 20 h incubation at 37° C. MIC values were recorded as the lowest compound concentration at which no visible growth was observed after this incubation period.

B. cereus ATCC 7064 [2] = assay: Broth microdilution MIC; conditions: B. cereus ATCC 7064
S. aureus ATCC 29213 [3] = assay: Broth microdilution MIC; conditions: S. aureus ATCC 29213; N/O = not observed
Source text: (§3) The identity and purity of both PKZ 6 and 18 was confirmed by mass spectroscopy. Forty commercially available compounds chosen on the basis of initial in silico selections and similarity to our two hits were screened by disc diffusion assay (DDA) to determine their relative antibacterial activity with S. aureus. […] These 14 compounds were further evaluated by minimum inhibitory concentration assays (MIC)^41,42, and minimum bactericidal assays (MBC)^41 to confirm antibacterial activity, determine the concentration at which S. aureus growth is inhibited in liquid culture (MIC) and if they are acting as bacteriostatic or bactericidal agents (MBC). […] Representative embodiments are shown below.
as §1, §2

S. aureus ATCC 29213 [4] = assay: MBC determination; conditions: S. aureus ATCC 29213; N/O = not observed
Source text: as §3
(§4) Following 24 h incubation of these subcultures at 37° C., MBC values were recorded as the lowest compound concentration at which no viable colonies were observed.

S. pneumoniae ATCC 49619 = assay: Broth microdilution MIC; conditions: S. pneumoniae ATCC 49619
E. faecalis ATCC 29212 [5] = assay: Broth microdilution MIC; conditions: N/O = not observed
B. cereus ATCC 7064 [6] = assay: MBC determination; conditions: N/O = not observed
Experimental: as §4

B. subtilis BGSC 1A1 [7] = assay: MBC determination; conditions: IND = indeterminate
Experimental: as §4

E. coli ATCC 25922 [8] = assay: MBC determination; conditions: E. coli ATCC 25922
Experimental: as §4

E. faecalis ATCC 29212 [9] = assay: MBC determination; conditions: N/O = not observed
Experimental: as §4

P. aeruginosa ATCC 27853 [10] = assay: MBC determination
Experimental: as §4

E. coli ATCC 25922 [11] = assay: Broth microdilution MIC (Gram negative specificity control); conditions: E. coli ATCC 25922; N/O = not observed
P. aeruginosa ATCC 27853 [12] = assay: Broth microdilution MIC; conditions: N/O = not observed

## Gentamicin [reference compound]
B. subtilis BGSC 1A1 [1]
  MIC: 0.125 µg/mL
B. cereus ATCC 7064 [2]
  MIC: 1 µg/mL
S. aureus ATCC 29213 [3]
  MIC: 0.5 µg/mL
S. aureus ATCC 29213 [4]
  MBC: 8 µg/mL
S. pneumoniae ATCC 49619
  MIC: 4 (N/D) μg/mL
E. faecalis ATCC 29212 [5]
  MIC: 8 µg/mL
B. cereus ATCC 7064 [6]
  MBC: 2 µg/mL
B. subtilis BGSC 1A1 [7]
  MBC: 0.25 µg/mL
E. coli ATCC 25922 [8]
  MBC: 1 µg/mL
E. faecalis ATCC 29212 [9]
  MBC: 32 µg/mL
P. aeruginosa ATCC 27853 [10]
  MBC: 4 µg/mL
E. coli ATCC 25922 [11]
  MIC: 1 µg/mL
P. aeruginosa ATCC 27853 [12]
  MIC: 1 µg/mL

— patent US10266527B2, “T-box riboswitch-binding anti-bacterial compounds” (THE RESEARCH FOUNDATION FOR THE STATE UNIVERSITY OF NEW YORK, priority 2013, dated 2019)
